Values quoted from earlier work as cited in US7208498B2, “Piperidino pyrimidine dipeptidyl peptidase inhibitors for the treatment of diabetes” (Merck & Co., Inc., priority 2002, dated 2007).

Key:
cardiac allograft = details: rats; Transplantation 63, 1495–1500 (1997)
hematopoiesis = details: mouse, cyclophosphamide-induced neutropenia; WO 99/56753

## CC(C)N1CCC(c2ccccc2)(c2ccccc2)CC1 [Prodipine, Pro-Pro-diphenyl-phosphonate]
Cardiac allograft
  cardiac allograft survival: double cardiac allograft survival in rats from day 7 to day 14

## CC[C@H](C)[C@H](N)C(=O)N1CCC[C@H]1C(=O)N[C@H](C(=O)O)[C@@H](C)CC [diprotin A]
GRF
  degradation of GRF in plasma to GRF[3-44]: prevented

## CC(C)[C@H](N)C(=O)N1CCC[C@H]1B(O)O [Val-Boro-Pro]
hematopoiesis
  hematopoiesis: stimulated hematopoiesis
